Source: patent US20090131354A1, “miR-126 REGULATED GENES AND PATHWAYS AS TARGETS FOR THERAPEUTIC INTERVENTION” (priority 2007, published 2009)

Tests used:
[1] = tested on: human A549 lung cancer xenografts; experiment: A549 lung cancer xenograft, cells electroporated before implantation; format: in vivo, NOD/SCID mice
Procedure: The inventors assessed the growth-inhibitory activity of hsa-miR-126 in human lung cancer xenografts grown in immunodeficient mice. Hsa-miR-126 was delivered into A549 and H460 lung cancer cells via electroporation using the Gene Pulser Xcell™ (BioRad) with the following settings: 15×10^6 cells with 5 μg miRNA in 200 μl OptiMEM, square wave pulse at 150 V for 10 ms. Electroporated cells (5×10^6) were mixed with BD Matrigel™, (BD Biosciences; San Jose, Calif., USA; cat. no. 356237) in a 1:1 ratio and injected subcutaneously into the flank of NOD/SCID mice (Charles River Laboratories, Inc.; Wilmington, Mass., USA). As a negative control, A549 and H460 cells were electroporated with negative control (NC) miRNA (Pre-miR™ microRNA Precursor Molecule-Negative Control #2; Ambion cat. no. AM17111) as described above. To assess the anti-oncogenic activity of hsa-miR-126, six animals were injected with A459 cells and six animals were injected with H460 cells. NC miRNA-treated cells were injected into the opposite flank of the same animal to control for animal-to-animal variability. Once tumors reached a measurable size (A549 at 7 days post injection; H460 at 5 days post injection), the length and width of tumors were determined every day for up to 11 days. Tumor volumes were calculated using the formula, Volume=length X width X width/2, in which the length is greater than the width. For animals carrying A549 xenografts, tumor volumes derived from NC-treated cells and hsa-miR-126-treated cells were averaged and plotted over time (FIG. 4). The p value, indicating statistical significance, is shown for values obtained on day 18 (p=0.0125).

[2] = tested on: prostate cancer cells PPC-1, Du145, LNCaP and RWPE2; experiment: Alamar Blue proliferation assay, all prostate cancer cell lines tested; format: cell-based, human
Source text: The inventors assessed the therapeutic effect of hsa-miR-126 for prostate cancer by using 4 individual human prostate cancer cell lines. To measure cellular proliferation of prostate cancer cells, the following prostate cancer cell lines were used: PPC-1, derived from a bone metastasis; Du145, derived from a brain metastasis; RWPE2, derived from prostate cells immortalized by human papillomavirus 18 and transformed by the K-RAS oncogene; and LNCaP, derived from a lymph node metastasis (Stone et al., 1978; Horoszewicz et al., 1980; Brothman et al., 1991; Pretlow et al., 1993; Bello et al., 1997). PPC-1 and Du145 cells lack expression of the prostate-specific antigen (PSA) and are independent of androgen receptor (AR) signaling. In contrast, RWPE2 and LNCaP cells test positive for PSA and AR. Cells were transfected with synthetic hsa-miR-126 (Pre-miR™-hsa-miR-126, Ambion cat. no. AM 17100) or negative control miRNA (NC; Pre-miR™ microRNA Precursor Molecule-Negative Control #2; Ambion cat. no. AM17111) in a 96-well format using a lipid-based transfection reagent. […] Proliferation was assessed 4-7 days post-transfection using Alamar Blue™ (Invitrogen) following the manufacturer's instructions. […] Fluorescent light units (FLU) were measured after 3 hours, normalized to the control, and plotted as percent change in proliferation. […]

[3] = tested on: human PPC-1 prostate cancer xenograft; experiment: PPC-1 prostate cancer xenograft; format: in vivo, NOD/SCID mice; conditions: PPC-1 xenograft
Procedure: Therefore, hsa-miR-126 is a likely to interfere with prostate tumor growth in the animal. To explore this possibility, the therapeutic potential of synthetic hsa-miR-126 miRNA was evaluated in the animal using the PPC-1 human prostate cancer xenograft. As described in Example 8, 5×10^6 PPC-1 cells per animal were electroporated with 1.6 μM synthetic hsa-miR-126 or negative control miRNA (Pre-miR™-hsa-miR-126, Ambion cat. no. AM17100; NC, Pre-miR™ microRNA Precursor Molecule-Negative Control #2, Ambion cat. no. AM17111), mixed with BD Matrigel™, (BD Biosciences; San Jose, Calif., USA; cat. no. 356237) in a 1:1 ratio and implanted subcutaneously into the lower back of NOD/SCID mice (Charles River Laboratories, Inc.; Wilmington, Mass., USA). A group of 7 mice was injected with hsa-miR-126 treated PPC-1 cells, and a group of 7 animals was injected with PPC-1 cells treated with negative control miRNA. To maintain steady levels of miRNA, 6.25 μg of each hsa-miR-126 or negative control miRNA conjugated with the lipid-based siPORT™ amine delivery agent (Ambion, Austin, Tex.; cat. no. AM4502) were repeatedly administered on days 7, 13 and 20 via intra-tumoral injections. Given an average mouse weight of 20 g, this dose equals 0.3125 mg/kg. Tumor growth was monitored by taking caliper measurements every 1-2 days for 22 days. Tumor volumes were calculated using the formula, Volume=length×width×width/2, in which the length is greater than the width, and plotted over time (FIG. 13). Standard deviations and data points with p values <0.01, indicating statistical significance, are shown in graph.

hsa-miR-126 (UCGUACCGUGAGUAAUAAUGC; synthetic pre-miR form, further chemistry not given here) [Synthetic hsa-miR-126 (Pre-miR™-hsa-miR-126, Ambion cat. no. AM17100)]
tumor size relative to control tumors ([1]; A549, day 18, n=6): all animals showed smaller tumors
tumor growth in vivo ([1]; A549 cells electroporated with miRNA before s.c. implantation): inhibited tumor growth in vivo
Ki-67 antigen in tumors (histology) ([1]; A549 tumors): diminished levels of the Ki-67 antigen
average inhibition of cellular proliferation ([2]; average of PPC-1, Du145, LNCaP, RWPE2, 30 nM): 23.07%
growth-inhibitory activity compared with siEg5 ([2]; prostate cancer cell lines, 30 nM): comparable to that of Eg5-directed siRNA
average volume of tumors ([3]; day 22, 6.25 μg intratumoral days 7, 13, 20): 157 mm^3
tumor volumes after treatment ([3]; in response to treatments on days 7 and 13): approximately 130 mm^3
tumor growth ([3]; repeated dosing): blocked tumor growth
